Measured values: patent US8158776B2, “P2Y6 receptor agonists for treating lung diseases” (Inspire Pharmaceuticals, Inc., priority 2005, dated 2012)

Experiments:
Format in all cases: cell-based
P2Y1 = target: T1, P2Y1 (Homo sapiens, UniProt P47900); assay: Intracellular calcium mobilization (FLIPR, Fluo-3 AM) in 1321N1 cells expressing P2Y1; conditions: 1321N1 cells expressing P2Y1, intracellular calcium
T1 construct: expressed in transfected cells; host or cells: human astrocytoma 1321N1 cells
Description: (§1) Human astrocytoma (1321N1) cells expressing P2Y1, P2Y2, P2Y4, and P2Y6 were grown to confluency in 96-well plates. Cells were loaded with a solution of Fluo-3 AM (2.5 μM final concentration) in an assay buffer consisting of 10 mM KCl, 118 mM NaCl, 2.5 mM CaCl2, 1 mM MgCl2, 20 mM HEPES, 10 mM glucose, pH 7.4. After a 60-minute incubation with Fluo-3 AM at 25° C., cells were washed and stimulated with serially diluted concentrations of compounds uridine 5′-diphosphate (UDP), P^1, P^3-(diuridine 5′-)triphosphate (UP3U) or P^1-(2′,3′-benzylacetal uridine 5′-)P^3-(uridine 5′-)triphosphate (mono-benzylacetal UP3U). Intracellular calcium levels were monitored in each well simultaneously by measuring the changes in fluorescence intensity using the FLIPR (Molecular Devices Corp., Sunnyvale, Calif.). Values for compounds UDP, UP3U, and mono-benzylacetal UP3U in Table 1 are presented as EC50 values corresponding to the concentration of an agonist that produces 50% of the maximum possible response.

P2Y2 = target: T2, P2Y2 (Homo sapiens, UniProt P41231); assay: Intracellular calcium mobilization (FLIPR, Fluo-3 AM) in 1321N1 cells expressing P2Y2; conditions: 1321N1 cells expressing P2Y2, intracellular calcium
T2 construct: expressed in transfected cells; host or cells: human astrocytoma 1321N1 cells
T2 sequence (P41231 whole entry, species assumed): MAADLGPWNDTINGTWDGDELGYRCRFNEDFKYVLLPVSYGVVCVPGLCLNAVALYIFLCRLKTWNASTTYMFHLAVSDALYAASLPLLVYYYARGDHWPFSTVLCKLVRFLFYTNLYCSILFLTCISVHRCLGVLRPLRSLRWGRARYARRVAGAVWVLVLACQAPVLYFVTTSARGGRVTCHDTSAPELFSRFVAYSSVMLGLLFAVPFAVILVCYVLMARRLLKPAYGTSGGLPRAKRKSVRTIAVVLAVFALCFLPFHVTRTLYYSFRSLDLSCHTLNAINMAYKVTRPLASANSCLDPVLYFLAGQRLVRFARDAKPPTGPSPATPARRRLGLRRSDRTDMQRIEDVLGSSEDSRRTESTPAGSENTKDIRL
Description: as §1

P2Y4 = target: T3, P2Y4 (Homo sapiens, UniProt P51582); assay: Intracellular calcium mobilization (FLIPR, Fluo-3 AM) in 1321N1 cells expressing P2Y4; conditions: 1321N1 cells expressing P2Y4, intracellular calcium
T3 construct: expressed in transfected cells; host or cells: human astrocytoma 1321N1 cells
T3 sequence (P51582 whole entry, species assumed): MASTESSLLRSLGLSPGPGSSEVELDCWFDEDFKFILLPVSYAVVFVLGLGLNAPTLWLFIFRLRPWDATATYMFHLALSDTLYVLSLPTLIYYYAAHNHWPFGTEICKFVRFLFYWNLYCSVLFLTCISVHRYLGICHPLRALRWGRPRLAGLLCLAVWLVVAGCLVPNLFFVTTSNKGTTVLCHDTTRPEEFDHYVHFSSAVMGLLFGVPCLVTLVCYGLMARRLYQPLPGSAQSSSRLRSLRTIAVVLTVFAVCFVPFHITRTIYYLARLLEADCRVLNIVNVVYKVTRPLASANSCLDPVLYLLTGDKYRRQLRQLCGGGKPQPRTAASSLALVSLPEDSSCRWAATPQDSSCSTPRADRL
Description: as §1

P2Y6 = target: T4, P2Y6 (Homo sapiens, UniProt Q15077); assay: Intracellular calcium mobilization (FLIPR, Fluo-3 AM) in 1321N1 cells expressing P2Y6; conditions: 1321N1 cells expressing P2Y6, intracellular calcium
T4 construct: expressed in transfected cells; host or cells: human astrocytoma 1321N1 cells
T4 sequence (Q15077 whole entry, species assumed): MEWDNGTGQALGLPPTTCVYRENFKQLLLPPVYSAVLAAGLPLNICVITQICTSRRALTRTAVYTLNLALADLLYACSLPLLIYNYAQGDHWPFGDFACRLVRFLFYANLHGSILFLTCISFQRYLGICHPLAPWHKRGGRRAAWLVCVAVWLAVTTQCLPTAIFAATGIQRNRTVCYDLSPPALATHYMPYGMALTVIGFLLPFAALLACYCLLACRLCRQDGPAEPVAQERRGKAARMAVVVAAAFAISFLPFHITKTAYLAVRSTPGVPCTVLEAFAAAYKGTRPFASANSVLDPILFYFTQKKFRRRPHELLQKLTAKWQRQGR
Description: as §1

T1 sequence (P47900 whole entry, species assumed): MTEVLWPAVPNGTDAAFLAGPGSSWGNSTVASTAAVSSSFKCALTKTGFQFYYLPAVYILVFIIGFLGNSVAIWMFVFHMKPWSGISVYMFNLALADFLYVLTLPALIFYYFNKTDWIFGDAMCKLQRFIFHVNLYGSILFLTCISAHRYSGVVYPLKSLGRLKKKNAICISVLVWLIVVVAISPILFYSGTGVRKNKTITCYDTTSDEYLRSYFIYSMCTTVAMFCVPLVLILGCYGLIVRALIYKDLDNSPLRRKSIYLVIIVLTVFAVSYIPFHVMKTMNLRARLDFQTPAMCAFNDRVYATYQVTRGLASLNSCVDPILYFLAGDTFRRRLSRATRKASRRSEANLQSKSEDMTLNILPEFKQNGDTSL

Row | Structure (SMILES) | EC50 (P2Y1) [µM] | EC50 (P2Y2) [µM] | EC50 (P2Y4) [µM] | EC50 (P2Y6) [µM]
1 | O=c1ccn([C@@H]2O[C@H](COP(=O)(O)OP(=O)(O)O)[C@@H](O)[C@H]2O)c(=O)[nH]1 [UDP, uridine 5′-diphosphate] | > 100 | 4.2 | 9.48 | 0.5
2 | O=c1ccn([C@@H]2O[C@H](COP(=O)(O)OP(=O)(O)OP(=O)(O)OC[C@H]3O[C@@H](n4ccc(=O)[nH]c4=O)[C@H](O)[C@@H]3O)[C@@H](O)[C@H]2O)c(=O)[nH]1 [UP3U, P^1, P^3-(diuridine 5′-)triphosphate] | > 100 | 13 | > 100 | 0.92
3 | O=c1ccn([C@@H]2O[C@H](COP(=O)(O)OP(=O)(O)OP(=O)(O)OC[C@@H]3O[C@H](n4ccc(=O)[nH]c4=O)C4OC(Cc5ccccc5)OC43)C(O)C2O)c(=O)[nH]1 (stereo partly drawn) [mono-benzylacetal UP3U, P^1-(2′,3′-benzylacetaluridine 5′-)P^3-(uridine 5′-)triphosphate] | > 100 | > 100 | > 100 | 0.14
